Measured values published in the supplement of paper PMC7806825.
± gives the standard deviation of the averaged measurements.

System: McpC ligand-binding domain (Salmonella Typhimurium SL1344)
Test: protein melting temperature (Tm) in presence of compound (degrees C); higher = more thermal stabilisation (possible ligand binding)
Details: compound stock concentration: 10-20 mM, 2 uL in 10 uL reaction

Row | SMILES | protein melting temperature (Biolog plate: PM03B) | protein melting temperature (Biolog plate: PM01) | protein melting temperature (Biolog plate: PM05) | further results
1 | N[C@@H]1C(O)O[C@H](CO)[C@@H](O)[C@@H]1O (stereo partly drawn) [D-Mannosamine] | 44.6 |  |  | 
2 | OC[C@H]1OC(O)[C@@H](O)[C@@H](O)[C@@H]1O (stereo partly drawn) [D-Mannose] |  | 44.2 |  | 
3 | OC[C@H]1O[C@@](CO)(O[C@H]2O[C@H](CO)[C@@H](O)[C@H](O)[C@H]2O)[C@@H](O[C@H]2O[C@H](CO)[C@@H](O)[C@H](O)[C@H]2O)[C@@H]1O [D-Melezitose] |  |  |  | protein melting temperature (Biolog plate: PM02A): 44.5
4 | OC[C@H]1O[C@H](OC[C@H]2OC(O)[C@H](O)[C@@H](O)[C@@H]2O)[C@H](O)[C@@H](O)[C@H]1O (stereo partly drawn) [D-Melibiose] |  | 44.7 |  | 
5 | CSCC[C@@H](N)C(=O)O [D-Methionine] |  |  |  | protein melting temperature (Biolog plate: PM04A): 43.7
6 | CC(C)(CO)[C@@H](O)C(=O)NCCC(=O)O [D-Pantothenic acid] |  |  | 43.7 | 
7 | OCC1(O)OC[C@@H](O)[C@@H](O)[C@H]1O (stereo partly drawn) [D-Psicose] |  | 45 |  | 
8 | OC[C@H]1O[C@H](OC[C@H]2O[C@H](O[C@]3(CO)O[C@H](CO)[C@@H](O)[C@@H]3O)[C@H](O)[C@@H](O)[C@@H]2O)[C@H](O)[C@@H](O)[C@H]1O [D-Raffinose] |  |  |  | protein melting temperature (Biolog plate: PM02A): 44.4
9 | O=C1O[C@H](CO)[C@@H](O)[C@H]1O [D-Ribono-1,4-Lactone] |  |  |  | protein melting temperature (Biolog plate: PM02A): 44.4
10 | O[C@@H]1[C@H](O)[C@H](O)CO[C@H]1O [D-Ribose] |  | 44.2 |  | 
11 | O=C(O)[C@@H](O)[C@@H](O)[C@H](O)[C@@H](O)C(=O)O [D-Saccharic acid] |  | 44.4 |  | 
12 | OC[C@@H](O)[C@@H](O)[C@H](O)[C@@H](O)CO [D-Sorbitol] |  | 45 |  | 
13 | O=C(CO)[C@@H](O)[C@@H](O)[C@H](O)CO [D-Tagatose] |  |  |  | protein melting temperature (Biolog plate: PM02A): 44
14 | C[C@H](O)[C@@H](N)C(=O)O [D-Threonine] |  | 44 |  | 
15 | OC[C@H]1O[C@H](O[C@H]2O[C@H](CO)[C@@H](O)[C@H](O)[C@H]2O)[C@H](O)[C@@H](O)[C@@H]1O [D-Trehalose] |  | 43.9 |  | 
16 | CC(C)[C@@H](N)C(=O)O [D-Valine] | 44.7 |  |  | 
17 | CC(=O)N(O)CCCCCNC(=O)CCC(=O)N(O)CCCCCNC(=O)CCC(=O)N(O)CCCCCN [Deferoxamine] |  |  | 44.4 | 
18 | OC[C@H]1OC(O[C@H]2[C@H](O)[C@@H](O)C(O[C@H]3[C@H](O)[C@@H](O)[C@@H](O)O[C@@H]3CO)O[C@@H]2CO)[C@H](O)[C@@H](O)[C@@H]1O (some centres undefined) [Dextrin] |  |  |  | protein melting temperature (Biolog plate: PM02A): 44
19 | OP(O)(=S)S [Dithiophosphate] |  |  |  | protein melting temperature (Biolog plate: PM04A): 43.6 ± 0.59
20 | OC[C@@H](O)[C@H](O)[C@H](O)[C@@H](O)CO [Dulcitol] |  | 44.6 |  | 
21 | NCCO [Ethanolamine] | 44.4 |  |  | 
22 | CCN [Ethylamine] | 44.7 |  |  | 
23 | Nc1nc(=O)c2nc(CNc3ccc(C(=O)N[C@@H](CCC(=O)O)C(=O)O)cc3)cnc2[nH]1 [Folic acid] |  |  | 43.8 | 
24 | NC=O [Formamide] | 45.6 |  |  | 
25 | O=C(O)/C=C/C(=O)O [Fumaric acid] |  | 44.6 |  | 
26 | O=C[C@H](O)[C@@H](O)[C@H](O)[C@H](O)CO[C@@H]1O[C@H](CO)[C@@H](O)[C@H](O)[C@H]1O [Gentiobiose] |  |  |  | protein melting temperature (Biolog plate: PM02A): 44.5

Row | SMILES | protein melting temperature (Biolog plate: PM03B) | protein melting temperature (Biolog plate: PM01) | protein melting temperature (Biolog plate: PM05) | further results
27 | NC(=O)[C@H]1O[C@@H](O)[C@H](O)[C@@H](O)[C@@H]1O [Glucuronamide] | 45.7 | 44.9 |  | 
28 | N[C@@H](CCC(=O)N[C@@H](CS)C(=O)NCC(=O)O)C(=O)O [Glutathione] |  |  | 43.6 | protein melting temperature (Biolog plate: PM04A): 43.7
29 | NCC(=O)N[C@@H](CC(N)=O)C(=O)O [Gly-Asn] | 44.5 |  |  | 
30 | NCC(=O)N[C@@H](CC(=O)O)C(=O)O [Gly-Asp] |  | 44.4 |  | 
31 | NCC(=O)N[C@@H](CCC(N)=O)C(=O)O [Gly-Gln] | 45.2 |  |  | 
32 | NCC(=O)N[C@@H](CCC(=O)O)C(=O)O [Gly-Glu] | 45.1 | 44.9 |  | 
33 | CSCC[C@H](NC(=O)CN)C(=O)O [Gly-Met] | 45.2 |  |  | protein melting temperature (Biolog plate: PM04A): 43.8
34 | NCC(=O)N1CCC[C@H]1C(=O)O [Gly-Pro] |  | 44.2 |  | 
35 | NCC(=O)O [Glycine] | 44.8 |  | 43.9 | protein melting temperature (Biolog plate: PM02A): 44.4
36 | OC[C@H]1O[C@H](OC[C@H]2O[C@H](O[C@H]3[C@H](O)[C@@H](O)[C@@H](O)O[C@@H]3CO)[C@H](O)[C@@H](O)[C@@H]2O[C@H]2O[C@H](CO)[C@@H](O)[C@H](O)[C@H]2O)[C@H](O)[C@@H](O)[C@@H]1O [Glycogen] |  |  |  | protein melting temperature (Biolog plate: PM02A): 44.8
37 | Nc1nc2[nH]cnc2c(=O)[nH]1 [Guanine] | 44.7 |  | 44.4 | 
38 | Nc1nc2c(ncn2[C@@H]2O[C@H](CO)[C@@H](O)[C@H]2OP(=O)(O)O)c(=O)[nH]1 [Guanosine 2`-Monophosphate] |  |  |  | protein melting temperature (Biolog plate: PM04A): 44
39 | Nc1nc2c(ncn2[C@@H]2O[C@H](CO)[C@@H](OP(=O)(O)O)[C@H]2O)c(=O)[nH]1 [Guanosine 3`-Monophosphate] |  |  |  | protein melting temperature (Biolog plate: PM04A): 43.9
40 | Nc1nc2c(ncn2[C@@H]2O[C@H](COP(=O)(O)O)[C@@H](O)[C@H]2O)c(=O)[nH]1 [Guanosine 5`-Monophosphate] |  |  |  | protein melting temperature (Biolog plate: PM04A): 43.9
41 | Nc1nc2c(ncn2[C@@H]2O[C@H](CO)[C@@H](O)[C@H]2O)c(=O)[nH]1 [Guanosine] | 45.5 |  | 44.5 | 
42 | NCCc1c[nH]cn1 [Histamine] | 45.1 |  |  | 
43 | O=C(O)[C@@H]1C[C@@H](O)CN1 [Hydroxy-L-Proline] |  |  | 43.8 | protein melting temperature (Biolog plate: PM02A): 44.2
44 | O=PO [Hypophosphite] |  |  |  | protein melting temperature (Biolog plate: PM04A): 44.1
45 | NCCS(=O)O [Hypotaurine] |  |  |  | protein melting temperature (Biolog plate: PM04A): 44.5
46 | O=c1[nH]cnc2nc[nH]c12 [Hypoxanthine] |  |  | 44 | 
47 | O=c1[nH]cnc2c1ncn2[C@@H]1O[C@H](CO)[C@@H](O)[C@H]1O [Inosine] | 44.6 | 44.4 | 44.6 | 
48 | C[C@H](N)C(=O)O [L-Alanine] | 45.6 | 44.8 | 44.9 | 
49 | O[C@@H]1[C@@H](O)[C@@H](O)CO[C@H]1O [L-Arabinose] |  | 44.5 |  | 
50 | OC[C@H](O)C(O)[C@@H](O)CO [L-Arabitol] |  |  |  | protein melting temperature (Biolog plate: PM02A): 43.8
51 | N=C(N)NCCC[C@H](N)C(=O)O [L-Arginine] | 45.4 |  | 44.6 | protein melting temperature (Biolog plate: PM02A): 44.2
52 | NC(=O)C[C@H](N)C(=O)O [L-Asparagine] | 45.7 | 44.4 | 44.5 | 

Row | SMILES | protein melting temperature (Biolog plate: PM03B) | protein melting temperature (Biolog plate: PM01) | protein melting temperature (Biolog plate: PM05) | further results
53 | N[C@@H](CC(=O)O)C(=O)O [L-Aspartic acid] | 45.4 | 44.5 | 44.2 | 
54 | NC(=O)NCCC[C@H](N)C(=O)O [L-Citrulline] | 44.8 |  | 43.8 | 
55 | N[C@@H](CS(=O)(=O)O)C(=O)O [L-Cysteic acid] |  |  |  | protein melting temperature (Biolog plate: PM04A): 43.1
56 | N[C@@H](CS(=O)O)C(=O)O [L-Cysteine Sulfinic acid] |  |  |  | protein melting temperature (Biolog plate: PM04A): 43
57 | N[C@@H](CSCSC[C@H](N)C(=O)O)C(=O)O [L-Djenkolic acid] |  |  |  | protein melting temperature (Biolog plate: PM04A): 44.6
58 | C[C@H](O)[C@@H](O)[C@@H](O)[C@H](O)C=O [L-Fucose] |  | 44.7 |  | 
59 | OC[C@@H]1OC(O)[C@@H](O)[C@H](O)[C@H]1O (stereo partly drawn) [L-Glucose] |  |  |  | protein melting temperature (Biolog plate: PM02A): 44.4
60 | N[C@@H](CCC(=O)O)C(=O)O [L-Glutamic acid] | 44.8 | 44.2 | 44.2 | 
61 | NC(=O)CC[C@H](N)C(=O)O [L-Glutamine] | 45.1 | 44 | 44.9 | 
62 | N[C@@H](Cc1c[nH]cn1)C(=O)O [L-Histidine] | 44.8 |  | 44.6 | protein melting temperature (Biolog plate: PM02A): 44.7
63 | N[C@H]1CCOC1=O [L-Homoserine Lactone] |  |  | 44.5 | 
64 | N[C@@H](CCO)C(=O)O [L-Homoserine] | 44.8 |  |  | protein melting temperature (Biolog plate: PM02A): 44.7
65 | CC[C@H](C)[C@H](N)C(=O)O [L-Isoleucine] | 44.8 |  | 44.7 | protein melting temperature (Biolog plate: PM02A): 44.3
66 | CC(C)C[C@H](N)C(=O)O [L-Leucine] | 44.8 |  | 44.6 | protein melting temperature (Biolog plate: PM02A): 44.3
67 | O=C[C@H](O)[C@H](O)[C@@H](O)CO [L-Lyxose] |  | 44.7 |  | 
68 | O=C(O)C[C@H](O)C(=O)O [L-Malic acid] |  | 44.3 |  | 
69 | CS(=O)(=O)CC[C@H](N)C(=O)O [L-Methionine Sulfone] |  |  |  | protein melting temperature (Biolog plate: PM04A): 43.9
70 | C[S+]([O-])CC[C@H](N)C(=O)O (stereo partly drawn) [L-Methionine Sulfoxide] |  |  |  | protein melting temperature (Biolog plate: PM04A): 43.6
71 | CSCC[C@H](N)C(=O)O [L-Methionine] | 44.7 |  | 44.4 | protein melting temperature (Biolog plate: PM02A): 43.5; protein melting temperature (Biolog plate: PM04A): 43.9
72 | NCCC[C@H](N)C(=O)O [L-Ornithine] | 44.4 |  | 44.7 | protein melting temperature (Biolog plate: PM02A): 44.4
73 | N[C@@H](Cc1ccccc1)C(=O)O [L-Phenylalanine] | 44.8 |  | 43.8 | protein melting temperature (Biolog plate: PM02A): 44.5
74 | O=C(O)[C@@H]1CCCN1 [L-Proline] | 45.1 | 44.3 | 44.2 | 
75 | C[C@@H](O)[C@H](N)C(=O)O [L-Threonine] | 44.8 | 44 | 43.8 | 
76 | N[C@@H](Cc1c[nH]c2ccccc12)C(=O)O [L-Tryptophan] | 44.4 |  | 44 | 
